Holding throughout (format): biochemical
Test [1] concerns the target CDK2/CCNE1 (Homo sapiens, UniProt P24941). As to the kind of experiment: CDK2 homogeneous time-resolved fluorescence (HTRF) kinase assay. The conditions noted are these: CDK2/CCNE. A digest of the protocol: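 TR-FRET read-out (665 nm, or 665/615 ratio) of Eu-antibody detection of phospho-4E-BP1 (Thr37/46) ULight peptide. Enzyme 3 nM, ATP 1 mM, peptide 50 nM, 1% DMSO; 60 min reaction at 23 °C after 20 min compound preincubation. IC50 from 11-point half-log titrations, top typically 10 μM.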

For test [2], the target named is CDK1/CCNB1 (Homo sapiens, UniProt P06493). As to the kind of experiment: CDK1 homogeneous time-resolved fluorescence (HTRF) kinase assay. The conditions noted are these: CDK1/CCNB. A digest of the protocol: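 CDK1/CCNB1 0.5 nM + cpd, 20 min 23 °C; add 1 mM ATP, 50 nM ULight-4E-BP1 peptide, 60 min 23 °C; stop 10 mM EDTA; 2 nM Eu-Ab, 60 min; HTRF 665 nm. 11-pt half-log, top 10 μM typical; IC50.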
Background: TR-FRET usually uses a lanthanide donor and a delayed reading to cut background.

Test [3] concerns the target CDK4/CCND3 (Homo sapiens, UniProt P11802). The test is described as follows: CDK4 homogeneous time-resolved fluorescence (HTRF) kinase assay. To be noted: CDK4/CCND. The gist of the method:
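TR-FRET read (665 nm, or 665/615 ratio) of 4E-BP1 Thr37/46 phosphorylation by 1.5 nM CDK4/CCND3 at 1 mM ATP, 50 nM ULight peptide, 1% DMSO. Reaction ran 60 min at 23 °C after 20 min compound–enzyme preincubation. IC50 from 11-point half-log dilutions, top 10 μM.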

Test [4] addresses CDK6/CCND1 (Homo sapiens, UniProt Q00534). As to the kind of experiment: CDK6 homogeneous time-resolved fluorescence (HTRF) kinase assay. To be noted: CDK6/CCND. The gist of the method: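 Assay conditions: HEPES buffer containing 10 mM MgCl2, 1 mM EGTA, 2 mM DTT, 0.01% Tween 20; 1 nM CDK6/CCND1, 50 nM peptide substrate, 1 mM ATP. Detection after 60 min reaction used 2 nM europium antibody with 340 nm excitation. Potency fitted from half-log series, 11 points.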

Where [5] appears, read: 25-250 nM marked x, read-out: CDK2/CCNE IC50 25-250 nM.
Setting [6] is: >250 nM marked x, read-out: CDK1/CCNB IC50 >250 nM.
Where [7] appears, read: 25-250 nM marked x, read-out: CDK4/CCND IC50 25-250 nM.
The mark [8] stands for this setting: 25-250 nM marked x, read-out: CDK6/CCND IC50 25-250 nM.
Setting [9] is: <25 nM, read-out: CDK6/CCND IC50 <25 nM.
Where [10] appears, read: <25 nM, read-out: CDK2/CCNE IC50 <25 nM.
Setting [11] is: 25-250 nM marked x, read-out: CDK1/CCNB IC50 25-250 nM.
Setting [12] is: <25 nM, read-out: CDK4/CCND IC50 <25 nM.

Among the data in patent US20260325533A1, “CDK INHIBITOR COMPOUNDS” (ALEKSIA THERAPEUTICS, INC., priority 2023, published 2026) are IC50 values, retold here.

pIC50: −log10 of the molar value. Where two headings read alike, the source gives them in different places.

CDK4/CCND3, sequence (P11802 whole entry): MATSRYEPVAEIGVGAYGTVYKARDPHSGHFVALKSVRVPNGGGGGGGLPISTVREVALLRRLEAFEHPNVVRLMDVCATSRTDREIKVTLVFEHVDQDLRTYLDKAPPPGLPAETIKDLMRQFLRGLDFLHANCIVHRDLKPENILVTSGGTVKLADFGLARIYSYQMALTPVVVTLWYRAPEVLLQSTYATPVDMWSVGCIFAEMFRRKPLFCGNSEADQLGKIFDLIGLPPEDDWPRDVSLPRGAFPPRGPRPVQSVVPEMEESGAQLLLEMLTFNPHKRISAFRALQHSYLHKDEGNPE
CDK4/CCND3, sequence (P30281 whole entry partner): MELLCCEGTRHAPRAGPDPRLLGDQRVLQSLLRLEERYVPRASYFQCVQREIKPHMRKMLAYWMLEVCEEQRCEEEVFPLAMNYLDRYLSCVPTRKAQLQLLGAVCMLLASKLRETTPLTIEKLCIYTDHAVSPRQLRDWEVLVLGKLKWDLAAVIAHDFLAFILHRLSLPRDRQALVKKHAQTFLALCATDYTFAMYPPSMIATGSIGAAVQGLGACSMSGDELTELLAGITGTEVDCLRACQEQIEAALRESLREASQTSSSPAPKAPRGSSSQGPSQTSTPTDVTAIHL
CDK1/CCNB1, sequence (P06493 whole entry): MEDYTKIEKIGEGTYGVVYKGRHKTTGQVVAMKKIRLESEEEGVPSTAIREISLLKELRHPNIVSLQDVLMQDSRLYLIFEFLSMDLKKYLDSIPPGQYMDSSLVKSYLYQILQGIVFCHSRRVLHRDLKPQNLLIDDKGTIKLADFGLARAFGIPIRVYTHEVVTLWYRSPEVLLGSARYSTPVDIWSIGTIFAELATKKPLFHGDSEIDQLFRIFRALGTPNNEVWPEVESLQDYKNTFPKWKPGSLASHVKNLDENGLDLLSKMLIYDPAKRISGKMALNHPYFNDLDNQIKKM
CDK1/CCNB1, sequence (P14635 whole entry partner): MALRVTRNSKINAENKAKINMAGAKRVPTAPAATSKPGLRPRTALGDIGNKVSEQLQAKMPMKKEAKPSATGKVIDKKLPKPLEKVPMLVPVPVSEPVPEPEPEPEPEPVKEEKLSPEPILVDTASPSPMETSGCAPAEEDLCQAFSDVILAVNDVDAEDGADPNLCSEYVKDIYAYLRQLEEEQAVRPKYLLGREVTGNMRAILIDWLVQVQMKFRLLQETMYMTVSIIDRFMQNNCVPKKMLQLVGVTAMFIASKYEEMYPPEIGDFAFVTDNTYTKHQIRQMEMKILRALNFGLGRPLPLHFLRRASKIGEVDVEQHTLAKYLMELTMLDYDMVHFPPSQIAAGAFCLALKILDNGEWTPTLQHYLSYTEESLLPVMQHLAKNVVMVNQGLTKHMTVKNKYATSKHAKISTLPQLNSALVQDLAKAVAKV
CDK6/CCND1, sequence (Q00534 whole entry): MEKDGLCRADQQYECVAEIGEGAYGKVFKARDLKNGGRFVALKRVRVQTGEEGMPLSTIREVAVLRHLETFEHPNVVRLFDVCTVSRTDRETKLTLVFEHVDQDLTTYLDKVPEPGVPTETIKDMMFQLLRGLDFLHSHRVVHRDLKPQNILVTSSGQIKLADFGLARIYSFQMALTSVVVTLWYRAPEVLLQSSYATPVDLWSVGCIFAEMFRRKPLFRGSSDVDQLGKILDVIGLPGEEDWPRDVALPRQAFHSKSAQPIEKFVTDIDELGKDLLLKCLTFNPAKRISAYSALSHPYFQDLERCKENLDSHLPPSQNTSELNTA
CDK6/CCND1, sequence (P24385 whole entry partner): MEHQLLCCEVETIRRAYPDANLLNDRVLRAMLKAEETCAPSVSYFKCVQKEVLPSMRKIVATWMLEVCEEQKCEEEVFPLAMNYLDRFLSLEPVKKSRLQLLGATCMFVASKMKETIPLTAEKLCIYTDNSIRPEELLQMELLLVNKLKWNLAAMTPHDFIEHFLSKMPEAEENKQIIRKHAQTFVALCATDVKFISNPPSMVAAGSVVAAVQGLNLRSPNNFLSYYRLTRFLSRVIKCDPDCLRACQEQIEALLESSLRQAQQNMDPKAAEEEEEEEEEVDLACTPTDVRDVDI

Consider `CN(C)C1CCN(c2nccc3cnc(NC4CCN(S(C)(=O)=O)CC4)cc23)CC1` [Ex 49, 5-(4-(dimethylamino)piperidin-1-yl)-N-(1-(methylsulfonyl)piperidin-4-yl)-2,6-naphthyridin-3-amine], for which the pIC50 was 6.60 to 7.60 in test [1] (setting [5]), under 6.60 in test [2] (setting [6]), 6.60 to 7.60 in test [3] (setting [7]) and 6.60 to 7.60 in test [4] (setting [8]).
Regarding `COC1CCN(c2nccc3cnc(NC4CCN(S(C)(=O)=O)CC4)cc23)CC1` [Ex 50, 5-(4-methoxypiperidin-1-yl)-N-(1-(methylsulfonyl)piperidin-4-yl)-2,6-naphthyridin-3-amine], the pIC50 was 6.60 to 7.60 in test [1] (setting [5]), under 6.60 in test [2] (setting [6]), 6.60 to 7.60 in test [3] (setting [7]) and over 7.60 in test [4] (setting [9]).
For `CS(=O)(=O)N1CCC(Nc2cc3c(N4CC(O)C4)nccc3cn2)CC1` [Ex 51, 1-(7-((1-(methylsulfonyl)piperidin-4-yl)amino)-2,6-naphthyridin-1-yl)azetidin-3-ol], the pIC50 in test [1] (setting [5]) was 6.60 to 7.60; in test [2] (setting [6]), under 6.60; in test [3] (setting [7]), 6.60 to 7.60; in test [4] (setting [9]), over 7.60.
Turning to `CS(=O)(=O)N1CCC(Nc2cc3c(-c4ccc5[nH]ccc5c4)nccc3cn2)CC1` [Ex 63, 5-(1H-indol-5-yl)-N-(1-(methylsulfonyl)piperidin-4-yl)-2,6-naphthyridin-3-amine], the pIC50 in test [1] (setting [10]) is over 7.60; in test [2] (setting [11]), 6.60 to 7.60; in test [3] (setting [12]), over 7.60; in test [4] (setting [9]), over 7.60.
As for `CS(=O)(=O)N1CCC(Nc2cc3c(-c4cccc(CO)c4)nccc3cn2)CC1` [Ex 64, (3-(7-((1-(methylsulfonyl)piperidin-4-yl)amino)-2,6-naphthyridin-1-yl)phenyl)methanol], the pIC50 in test [1] (setting [10]) was over 7.60; in test [2] (setting [11]), 6.60 to 7.60; in test [3] (setting [12]) it was over 7.60; in test [4] (setting [9]), over 7.60.
Regarding `CS(=O)(=O)N1CCC(Nc2cc3c(-c4ccc(O)cc4)nccc3cn2)CC1` [Ex 68, 4-(7-((1-(methylsulfonyl)piperidin-4-yl)amino)-2,6-naphthyridin-1-yl)phenol], the pIC50 in test [1] (setting [10]) was over 7.60; in test [2] (setting [6]), under 6.60; in test [3] (setting [7]), 6.60 to 7.60; in test [4] (setting [9]), over 7.60.
Regarding `CS(=O)(=O)N1CCC(Nc2cc3c(-c4cccc(O)c4)nccc3cn2)CC1` [Ex 69, 3-(7-((1-(methylsulfonyl)piperidin-4-yl)amino)-2,6-naphthyridin-1-yl)phenol], the pIC50 is over 7.60 in test [1] (setting [10]), 6.60 to 7.60 in test [2] (setting [11]), 6.60 to 7.60 in test [3] (setting [7]) and 6.60 to 7.60 in test [4] (setting [8]).
As for `CS(=O)(=O)N1CCC(Nc2cc3c(-c4ccc5ocnc5c4)nccc3cn2)CC1` [Ex 70, 5-(benzo[d]oxazol-5-yl)-N-(1-(methylsulfonyl)piperidin-4-yl)-2,6-naphthyridin-3-amine], the pIC50 in test [1] (setting [10]) was over 7.60; in test [2] (setting [6]), under 6.60; in test [3] (setting [7]), 6.60 to 7.60; in test [4] (setting [9]), over 7.60.
Regarding `COCc1cccc(-c2nccc3cnc(NC4CCN(S(C)(=O)=O)CC4)cc23)c1` [Ex 71, 5-(3-(methoxymethyl)phenyl)-N-(1-(methylsulfonyl)piperidin-4-yl)-2,6-naphthyridin-3-amine], the pIC50 in test [1] (setting [10]) was over 7.60; in test [2] (setting [11]), 6.60 to 7.60; in test [3] (setting [7]), 6.60 to 7.60; in test [4] (setting [8]) it was 6.60 to 7.60.
Turning to `CS(=O)(=O)N1CCC(Nc2cc3c(-c4cccc(N)c4)nccc3cn2)CC1` [Ex 72, 5-(3-aminophenyl)-N-(1-(methylsulfonyl)piperidin-4-yl)-2,6-naphthyridin-3-amine], the pIC50 was over 7.60 in test [1] (setting [10]), under 6.60 in test [2] (setting [6]), 6.60 to 7.60 in test [3] (setting [7]) and 6.60 to 7.60 in test [4] (setting [8]).
`CS(=O)(=O)N1CCC(Nc2cc3c(-c4ccc(N)cc4)nccc3cn2)CC1` [Ex 73, 5-(4-aminophenyl)-N-(1-(methylsulfonyl)piperidin-4-yl)-2,6-naphthyridin-3-amine]: the pIC50 was over 7.60 in test [1] (setting [10]), 6.60 to 7.60 in test [2] (setting [11]), 6.60 to 7.60 in test [3] (setting [7]) and over 7.60 in test [4] (setting [9]).
Take `CS(=O)(=O)N1CCC(Nc2cc3c(-c4ccc(C#N)cc4)nccc3cn2)CC1` [Ex 74, 4-(7-((1-(methylsulfonyl)piperidin-4-yl)amino)-2,6-naphthyridin-1-yl)benzonitrile]: the pIC50 was over 7.60 in test [1] (setting [10]), under 6.60 in test [2] (setting [6]), 6.60 to 7.60 in test [3] (setting [7]) and 6.60 to 7.60 in test [4] (setting [8]).
On to `CS(=O)(=O)N1CCC(Nc2cc3c(-c4cccc(C#N)c4)nccc3cn2)CC1` [Ex 75, 3-(7-((1-(methylsulfonyl)piperidin-4-yl)amino)-2,6-naphthyridin-1-yl)benzonitrile], for which the pIC50 in test [1] (setting [10]) is over 7.60; in test [2] (setting [6]), under 6.60; in test [3] (setting [7]), 6.60 to 7.60; in test [4] (setting [8]), 6.60 to 7.60.
As to `CS(=O)(=O)N1CCC(Nc2cc3c(-c4ccc5cn[nH]c5c4)nccc3cn2)CC1` [Ex 76, 5-(1H-indazol-6-yl)-N-(1-(methylsulfonyl)piperidin-4-yl)-2,6-naphthyridin-3-amine], the pIC50 in test [1] (setting [10]) is over 7.60; in test [2] (setting [11]), 6.60 to 7.60; in test [3] (setting [12]) it was over 7.60; in test [4] (setting [9]), over 7.60.
On to `CS(=O)(=O)N1CCC(Nc2cc3c(-c4ccc5[nH]ncc5c4)nccc3cn2)CC1` [Ex 77, 5-(1H-indazol-5-yl)-N-(1-(methylsulfonyl)piperidin-4-yl)-2,6-naphthyridin-3-amine], for which the pIC50 was over 7.60 in test [1] (setting [10]), under 6.60 in test [2] (setting [6]), 6.60 to 7.60 in test [3] (setting [7]) and 6.60 to 7.60 in test [4] (setting [8]).
As for `CS(=O)(=O)N1CCC(Nc2cc3c(-c4ccc(CO)cc4)nccc3cn2)CC1` [Ex 78, (4-(7-((1-(methylsulfonyl)piperidin-4-yl)amino)-2,6-naphthyridin-1-yl)phenyl)methanol], the pIC50 is over 7.60 in test [1] (setting [10]), under 6.60 in test [2] (setting [6]), 6.60 to 7.60 in test [3] (setting [7]) and over 7.60 in test [4] (setting [9]).
For the compound `CS(=O)(=O)N1CCC(Nc2cc3c(-c4ccccc4OC(F)(F)F)nccc3cn2)CC1` [Ex 81, N-(1-(methylsulfonyl)piperidin-4-yl)-5-(2-(trifluoromethoxy)phenyl)-2,6-naphthyridin-3-amine], the pIC50 was over 7.60 in test [1] (setting [10]), under 6.60 in test [2] (setting [6]), 6.60 to 7.60 in test [3] (setting [7]) and 6.60 to 7.60 in test [4] (setting [8]).
As to `CS(=O)(=O)N1CCC(Nc2cc3c(-c4cncs4)nccc3cn2)CC1` [Ex 82, N-(1-(methylsulfonyl)piperidin-4-yl)-5-(thiazol-5-yl)-2,6-naphthyridin-3-amine], the pIC50 in test [1] (setting [10]) was over 7.60; in test [2] (setting [6]), under 6.60; in test [3] (setting [7]), 6.60 to 7.60; in test [4] (setting [8]), 6.60 to 7.60.
Turning to `CS(=O)(=O)N1CCC(Nc2cc3c(C4=CCOCC4)nccc3cn2)CC1` [Ex 87, 5-(3,6-dihydro-2H-pyran-4-yl)-N-(1-(methylsulfonyl)piperidin-4-yl)-2,6-naphthyridin-3-amine], the pIC50 in test [1] (setting [10]) is over 7.60; in test [2] (setting [6]), under 6.60; in test [3] (setting [7]), 6.60 to 7.60; in test [4] (setting [8]), 6.60 to 7.60.
With `CS(=O)(=O)N1CCC(Nc2cc3c(-c4ccc5cc[nH]c5c4)nccc3cn2)CC1` [Ex 89, 5-(1H-indol-6-yl)-N-(1-(methylsulfonyl)piperidin-4-yl)-2,6-naphthyridin-3-amine], the pIC50 was over 7.60 in test [1] (setting [10]), 6.60 to 7.60 in test [2] (setting [11]), over 7.60 in test [3] (setting [12]) and over 7.60 in test [4] (setting [9]).
Turning to `CS(=O)(=O)N1CCC(Nc2cc3c(-c4cc[nH]c4)nccc3cn2)CC1` [Ex 90, N-(1-(methylsulfonyl)piperidin-4-yl)-5-(1H-pyrrol-3-yl)-2,6-naphthyridin-3-amine], the pIC50 was over 7.60 in test [1] (setting [10]), under 6.60 in test [2] (setting [6]), 6.60 to 7.60 in test [3] (setting [7]) and 6.60 to 7.60 in test [4] (setting [8]).
Consider `CS(=O)(=O)N1CCC(Nc2cc3c(-c4ccc5c(c4)CC(=O)N5)nccc3cn2)CC1` [Ex 91, 5-(7-((1-(methylsulfonyl)piperidin-4-yl)amino)-2,6-naphthyridin-1-yl)indolin-2-one], for which the pIC50 is over 7.60 in test [1] (setting [10]), under 6.60 in test [2] (setting [6]), 6.60 to 7.60 in test [3] (setting [7]) and 6.60 to 7.60 in test [4] (setting [8]).
